{"source": "patent US20170273922A1", "about": "“UREA AND BIS-UREA BASED COMPOUNDS AND ANALOGUES THEREOF USEFUL IN THE TREATMENT OF ANDROGEN RECEPTOR MEDIATED DISEASES OR DISORDERS” (THE ROYAL INSTITUTION FOR THE ADVACEMENT OF LEARNING/MCGILL …, priority 2014, published 2017)", "key": {"[1]": {"experiment": "MTT assay (cytotoxicity), LNCaP cells", "format": "cell-based", "conditions": "human, LNCaP cells", "description": "(§1) MTT assays: LNCaP, 22Rv1, Du145, H1975, A549, MB231 and MCF-7 cells are maintained in RPMI 1640 supplemented with 10% FBS. Cells were seeded at a density of 6-7×10^3 cells per well in 96-well plates. After overnight incubation, cells in fresh RPMI 1640 supplemented with 10% FBS were exposed to DMSO vehicle control or test compounds at designated concentrations for 72 h. Viable cells were evaluated by MTT assays. Experiments were performed in triplicate and repeated at least twice."}, "[2]": {"experiment": "MTT assay (cytotoxicity), 22Rv1 cells", "format": "cell-based", "conditions": "human, 22Rv1 cells, 72 h treatment, Table 6.1", "description": "as §1"}}}
{"compound": "O=C(Nc1cccc(NC(=O)c2cccc(F)c2)c1)Nc1cccc(C(F)(F)F)c1", "note": "[Compound 914]", "values": [{"measurement": "IC50 at 72 h", "setting": "[1]; 72 h treatment, Table 6.1", "result": 7.3, "unit": "µM"}, {"measurement": "IC50 at 72 h", "setting": "[2]", "result": 8.7, "unit": "µM"}]}
{"compound": "O=C(Nc1cccc(NC(=O)c2ccc(F)cc2)c1)Nc1cccc(C(F)(F)F)c1", "note": "[Compound 915]", "values": [{"measurement": "IC50 at 72 h", "setting": "[1]; 72 h treatment, Table 6.1", "result": 9, "unit": "µM"}, {"measurement": "IC50 at 72 h", "setting": "[2]", "result": 10.6, "unit": "µM"}]}
{"compound": "O=C(Nc1cccc(C(F)(F)F)c1)Nc1cc(NC(=O)c2ccccc2F)cc(C(F)(F)F)c1", "note": "[Compound 928]", "values": [{"measurement": "IC50 at 72 h", "setting": "[1]; 72 h treatment, Table 6.1", "result": 2.4, "unit": "µM"}, {"measurement": "IC50 at 72 h", "setting": "[2]", "result": 2, "unit": "µM"}]}
{"compound": "O=C(Nc1cccc(C(F)(F)F)c1)Nc1ccc(F)c(NC(=O)c2cc(Cl)ccc2F)c1", "note": "[Compound 929]", "values": [{"measurement": "IC50 at 72 h", "setting": "[1]; 72 h treatment, Table 6.1", "result": 5.5, "unit": "µM"}, {"measurement": "IC50 at 72 h", "setting": "[2]", "result": 5.7, "unit": "µM"}]}
{"compound": "O=C(Nc1cccc(C(F)F)c1)Nc1ccc(NC(=O)c2cc(F)ccc2F)c(C(F)(F)F)c1", "note": "[Compound 930]", "values": [{"measurement": "IC50 at 72 h", "setting": "[1]; 72 h treatment, Table 6.1", "result": 8.2, "unit": "µM"}, {"measurement": "IC50 at 72 h", "setting": "[2]", "result": 5.6, "unit": "µM"}]}
{"compound": "N#Cc1ccc(NC(=O)NCC(=O)c2cccc(C(F)(F)F)c2)cc1C(F)(F)F", "note": "[Compound 937]", "values": [{"measurement": "IC50 at 72 h", "setting": "[1]; 72 h, Table 2.4", "result": 7.3, "unit": "µM"}]}
{"compound": "O=C(Nc1cccc(C(F)F)c1)Nc1ccc(NC(=O)c2cc(C(F)(F)F)ccc2F)c(C(F)(F)F)c1", "note": "[Compound 941]", "values": [{"measurement": "IC50 at 72 h", "setting": "[1]; 72 h treatment, Table 6.1", "result": 5.4, "unit": "µM"}, {"measurement": "IC50 at 72 h", "setting": "[2]", "result": 3.6, "unit": "µM"}]}
{"compound": "O=C(Nc1cccc(C(F)(F)F)c1)Nc1ccc(F)c(NC(=O)c2cc(F)ccc2F)c1", "note": "[Compound 942]", "values": [{"measurement": "IC50 at 72 h", "setting": "[1]; 72 h treatment, Table 6.1", "result": 5.7, "unit": "µM"}, {"measurement": "IC50 at 72 h", "setting": "[2]", "result": 7.1, "unit": "µM"}]}
{"compound": "O=C(Nc1cccc(C(F)(F)F)c1)Nc1ccc(F)c(NC(=O)c2ccc(F)cc2F)c1", "note": "[Compound 943]", "values": [{"measurement": "IC50 at 72 h", "setting": "[1]; 72 h treatment, Table 6.1", "result": 6.3, "unit": "µM"}, {"measurement": "IC50 at 72 h", "setting": "[2]", "result": 13, "unit": "µM"}]}
{"compound": "O=C(Nc1cccc(C(F)(F)F)c1)Nc1ccc(F)c(NC(=O)c2cc(C(F)(F)F)ccc2F)c1", "note": "[Compound 944]", "values": [{"measurement": "IC50 at 72 h", "setting": "[1]; 72 h treatment, Table 6.1", "result": 5.5, "unit": "µM"}, {"measurement": "IC50 at 72 h", "setting": "[2]", "result": 4.5, "unit": "µM"}]}
{"compound": "O=C(Nc1cccc(C(F)F)c1)Nc1ccc(NC(=O)c2ccc(F)cc2F)c(C(F)(F)F)c1", "note": "[Compound 945]", "values": [{"measurement": "IC50 at 72 h", "setting": "[1]; 72 h treatment, Table 6.1", "result": 7.3, "unit": "µM"}, {"measurement": "IC50 at 72 h", "setting": "[2]", "result": 7.1, "unit": "µM"}]}
{"compound": "O=C(Nc1cccc(C(F)(F)F)c1)Nc1ccc(F)c(NC(=O)c2cccc(F)c2)c1", "note": "[Compound 946]", "values": [{"measurement": "IC50 at 72 h", "setting": "[1]; 72 h treatment, Table 6.1", "result": 8.4, "unit": "µM"}, {"measurement": "IC50 at 72 h", "setting": "[2]", "result": 9.5, "unit": "µM"}]}
{"compound": "O=C(Nc1cccc(C(F)(F)F)c1)Nc1ccc(F)c(NC(=O)c2ccc(F)cc2)c1", "note": "[Compound 947]", "values": [{"measurement": "IC50 at 72 h", "setting": "[1]; 72 h treatment, Table 6.1", "result": 12.7, "unit": "µM"}, {"measurement": "IC50 at 72 h", "setting": "[2]", "result": 15.9, "unit": "µM"}]}
{"compound": "O=C(Nc1cccc(C(F)(F)F)c1)Nc1ccc(F)c(NC(=O)c2cccc(F)c2F)c1", "note": "[Compound 948]", "values": [{"measurement": "IC50 at 72 h", "setting": "[1]; 72 h treatment, Table 6.1", "result": 8, "unit": "µM"}, {"measurement": "IC50 at 72 h", "setting": "[2]", "result": 17.1, "unit": "µM"}]}
{"compound": "O=C(Nc1cccc(C(F)(F)F)c1)Nc1cc(C(=O)O)cc(C(F)(F)F)c1", "note": "[Compound 949]", "values": [{"measurement": "IC50 at 72 h", "setting": "[1]; 72 h treatment, Table 6.1", "result": 2.9, "unit": "µM"}, {"measurement": "IC50 at 72 h", "setting": "[2]", "result": 32.9, "unit": "µM"}]}
{"compound": "O=C(Nc1cccc(C(F)(F)F)c1)Nc1ccc(F)c(NC(=O)Nc2ccccc2F)c1", "note": "[Compound 950]", "values": [{"measurement": "IC50 at 72 h", "setting": "[1]; 72 h treatment, Table 6.1", "result": 3.8, "unit": "µM"}, {"measurement": "IC50 at 72 h", "setting": "[2]", "result": 7.8, "unit": "µM"}]}
{"compound": "O=C(Nc1cccc(C(F)(F)F)c1)Nc1ccc(F)c(NC(=O)c2cc(I)ccc2F)c1", "note": "[Compound 951]", "values": [{"measurement": "IC50 at 72 h", "setting": "[1]; 72 h treatment, Table 6.1", "result": 4, "unit": "µM"}, {"measurement": "IC50 at 72 h", "setting": "[2]", "result": 9.8, "unit": "µM"}]}
{"compound": "O=C(Nc1cccc(C(F)(F)F)c1)Nc1ccc(NC(=O)c2cc(I)ccc2F)c(C(F)(F)F)c1", "note": "[Compound 952]", "values": [{"measurement": "IC50 at 72 h", "setting": "[1]; 72 h treatment, Table 6.1", "result": 5.2, "unit": "µM"}, {"measurement": "IC50 at 72 h", "setting": "[2]", "result": 7.8, "unit": "µM"}]}
{"compound": "O=C(Nc1cccc(C(F)(F)F)c1)Nc1cc(NC(=O)Nc2cccc(C(F)(F)F)c2)cc(C(F)(F)F)c1", "note": "[Compound 953]", "values": [{"measurement": "IC50 at 72 h", "setting": "[1]; 72 h treatment, Table 6.1", "result": 1.4, "unit": "µM"}, {"measurement": "IC50 at 72 h", "setting": "[2]", "result": 0.9, "unit": "µM"}]}
{"compound": "O=C(Nc1ccc(C(F)(F)F)cc1)Nc1cc(NC(=O)Nc2ccc(C(F)(F)F)cc2)cc(C(F)(F)F)c1", "note": "[Compound 955]", "values": [{"measurement": "IC50 at 72 h", "setting": "[1]; 72 h treatment, Table 6.1", "result": 1.5, "unit": "µM"}, {"measurement": "IC50 at 72 h", "setting": "[2]", "result": 0.9, "unit": "µM"}]}
{"compound": "O=C(Nc1ccc(C(F)(F)F)cc1)Nc1ccc(F)c(NC(=O)c2ccc(F)cc2F)c1", "note": "[Compound 956]", "values": [{"measurement": "IC50 at 72 h", "setting": "[1]; 72 h treatment, Table 6.1", "result": 3.5, "unit": "µM"}, {"measurement": "IC50 at 72 h", "setting": "[2]", "result": 9.5, "unit": "µM"}]}
{"compound": "O=C(Nc1ccc(F)c(NC(=O)c2cc(C(F)(F)F)ccc2F)c1)Nc1ccccc1C(F)(F)F", "note": "[Compound 959]", "values": [{"measurement": "IC50 at 72 h", "setting": "[1]; 72 h treatment, Table 6.1", "result": 13.5, "unit": "µM"}, {"measurement": "IC50 at 72 h", "setting": "[2]", "result": 8.7, "unit": "µM"}]}
{"compound": "O=C(Nc1ccc(F)c(NC(=O)c2ccc(F)cc2F)c1)Nc1ccccc1C(F)(F)F", "note": "[Compound 960]", "values": [{"measurement": "IC50 at 72 h", "setting": "[2]", "result": 5.7, "unit": "µM"}]}
{"compound": "O=C(Nc1cccc(C(F)(F)F)c1)Nc1ccc(F)cc1NC(=O)c1ccc(F)cc1F", "note": "[Compound 961]", "values": [{"measurement": "IC50 at 72 h", "setting": "[1]; 72 h treatment, Table 6.1", "result": 6.2, "unit": "µM"}, {"measurement": "IC50 at 72 h", "setting": "[2]", "result": 10.1, "unit": "µM"}]}
{"compound": "O=C(Nc1ccc(Br)cc1)Nc1cc(F)ccc1NC(=O)c1ccc(F)cc1F", "note": "[Compound 962]", "values": [{"measurement": "IC50 at 72 h", "setting": "[1]; 72 h treatment, Table 6.1", "result": 5.3, "unit": "µM"}, {"measurement": "IC50 at 72 h", "setting": "[2]", "result": 4.9, "unit": "µM"}]}
{"compound": "O=C(Nc1ccc(Br)cc1)Nc1ccc(F)c(NC(=O)c2cc(C(F)(F)F)ccc2F)c1", "note": "[Compound 963]", "values": [{"measurement": "IC50 at 72 h", "setting": "[1]; 72 h treatment, Table 6.1", "result": 2.4, "unit": "µM"}, {"measurement": "IC50 at 72 h", "setting": "[2]", "result": 4.7, "unit": "µM"}]}
{"compound": "O=C(Nc1cccc(F)c1)Nc1cc(NC(=O)Nc2cccc(F)c2)cc(C(F)(F)F)c1", "note": "[Compound 964]", "values": [{"measurement": "IC50 at 72 h", "setting": "[1]; 72 h treatment, Table 6.1", "result": 2.4, "unit": "µM"}, {"measurement": "IC50 at 72 h", "setting": "[2]", "result": 1.8, "unit": "µM"}]}
{"compound": "O=C(Nc1cccc(F)c1)Nc1cc(F)ccc1NC(=O)c1ccc(F)cc1F", "note": "[Compound 965]", "values": [{"measurement": "IC50 at 72 h", "setting": "[1]; 72 h treatment, Table 6.1", "result": 4.3, "unit": "µM"}, {"measurement": "IC50 at 72 h", "setting": "[2]", "result": 7.7, "unit": "µM"}]}
{"compound": "O=C(Nc1cccc(NC(=O)Nc2cccc(C(F)(F)F)c2)c1)Nc1cccc(C(F)(F)F)c1", "note": "[Compound 966]", "values": [{"measurement": "IC50 at 72 h", "setting": "[2]", "result": 6.6, "unit": "µM"}]}
{"compound": "O=C(Nc1cccc(C(F)(F)F)c1)Nc1ccccc1NC(=O)Nc1cccc(C(F)(F)F)c1", "note": "[Compound 967]", "values": [{"measurement": "IC50 at 72 h", "setting": "[1]; 72 h treatment, Table 6.1", "result": 2.7, "unit": "µM"}, {"measurement": "IC50 at 72 h", "setting": "[2]", "result": 3.1, "unit": "µM"}]}
{"compound": "N#Cc1ccc(NC(=O)NCC(=O)c2ccc(F)cc2)cc1C(F)(F)F", "note": "[Compound 982]", "values": [{"measurement": "IC50 at 72 h", "setting": "[1]; 72 h, Table 2.4", "result": 4.6, "unit": "µM"}]}
